Values joined by “and” are separate entries in the source; they are usually repeats but may differ in a detail not shown here. Equal values may be shown once. Toxic doses and inconclusive results are not listed.
System: CD2F1 mice, L1210 leukemia ip, survival T/C
Experiment: NCI In Vivo Anticancer Drug Screen. Data for tumor model L1210 Leukemia (intraperitoneal) in CD2F1 (CDF1) mice
Conditions: endpoint: mean survival time, higher = longer survival
Procedure: The antitumor activity of compounds was measured in mice bearing transplantable tumors. Survival or tumor size were measured and the results are expressed as the measurement made in the treated group (T) divided by the measurement made in the vehicle treated control group (C). The tumor model used in this assay is L1210 Leukemia (intraperitoneal) in CD2F1 (CDF1) mice

[1] = dose: 100.0 mg/kg/injection, schedule: Q04DX003 (ip), vehicle: saline
[2] = dose: 200.0 mg/kg/injection, schedule: Q04DX003 (ip), vehicle: saline
[3] = dose: 400.0 mg/kg/injection, schedule: Q04DX003 (ip), vehicle: saline
[4] = dose: 50.0 mg/kg/injection, schedule: Q01DX009 (ip), vehicle: saline with Tween-80
[5] = dose: 100.0 mg/kg/injection, schedule: Q01DX009 (ip), vehicle: saline with Tween-80
[6] = dose: 200.0 mg/kg/injection, schedule: Q01DX009 (ip), vehicle: saline with Tween-80
[7] = dose: 100.0 mg/kg/injection, schedule: Q01DX001 (ip), vehicle: saline with Tween-80
[8] = dose: 200.0 mg/kg/injection, schedule: Q01DX001 (ip), vehicle: saline with Tween-80
[9] = dose: 400.0 mg/kg/injection, schedule: Q01DX001 (ip), vehicle: saline with Tween-80
[10] = dose: 25.0 mg/kg/injection, schedule: Q01DX009 (ip), vehicle: saline with Tween-80
[11] = dose: 100.0 mg/kg/injection, schedule: Q04DX003 (ip), vehicle: saline with Tween-80
[12] = dose: 100.0 mg/kg/injection, schedule: Q04DX002 (ip), vehicle: saline with Tween-80
[13] = dose: 200.0 mg/kg/injection, schedule: Q04DX002 (ip), vehicle: saline with Tween-80
[14] = dose: 200.0 mg/kg/injection, schedule: Q04DX003 (ip), vehicle: saline with Tween-80
[15] = dose: 400.0 mg/kg/injection, schedule: Q01DX009 (ip), vehicle: saline with Tween-80
[16] = dose: 400.0 mg/kg/injection, schedule: Q04DX003 (ip), vehicle: saline with Tween-80
[17] = dose: 75.0 mg/kg/injection, schedule: Q01DX001 (ip), vehicle: other
[18] = dose: 400.0 mg/kg/injection, schedule: Q04DX002 (ip), vehicle: saline with Tween-80

## C=CCNC(=O)NCC=C
dose: 3.13 mg/kg/injection, schedule: Q01DX009 (ip), vehicle: saline
  T/C: 102 % of control and 110 % of control (2×)
dose: 12.5 mg/kg/injection, schedule: Q01DX005 (ip), vehicle: saline
  T/C: 102 % of control
dose: 12.5 mg/kg/injection, schedule: Q02DX005 (ip), vehicle: saline
  T/C: 97 % of control
dose: 12.5 mg/kg/injection, schedule: Q04DX003 (ip), vehicle: saline
  T/C: 100 % of control
dose: 25.0 mg/kg/injection, schedule: Q01DX005 (ip), vehicle: saline
  T/C: 105 % of control
dose: 25.0 mg/kg/injection, schedule: Q02DX005 (ip), vehicle: saline
  T/C: 100 % of control
dose: 25.0 mg/kg/injection, schedule: Q04DX003 (ip), vehicle: saline
  T/C: 102 % of control
dose: 50.0 mg/kg/injection, schedule: Q01DX005 (ip), vehicle: saline
  T/C: 103 % of control
dose: 50.0 mg/kg/injection, schedule: Q02DX005 (ip), vehicle: saline
  T/C: 103 % of control
dose: 50.0 mg/kg/injection, schedule: Q04DX003 (ip), vehicle: saline
  T/C: 103 % of control
dose: 100.0 mg/kg/injection, schedule: Q01DX005 (ip), vehicle: saline
  T/C: 109 % of control
dose: 100.0 mg/kg/injection, schedule: Q01DX006 (ip), vehicle: saline
  T/C: 154 % of control
dose: 100.0 mg/kg/injection, schedule: Q02DX005 (ip), vehicle: saline
  T/C: 105 % of control
dose: 100.0 mg/kg/injection, schedule: Q03DX003 (ip), vehicle: saline
  T/C: 120 % of control
[1]
  T/C: 115 % of control and 109 % of control
dose: 200.0 mg/kg/injection, schedule: Q01DX006 (ip), vehicle: saline
  T/C: 168 % of control
dose: 200.0 mg/kg/injection, schedule: Q02DX005 (ip), vehicle: saline
  T/C: 109 % of control
[2]
  T/C: 115 % of control and 120 % of control
dose: 400.0 mg/kg/injection, schedule: Q02DX005 (ip), vehicle: saline
  T/C: 115 % of control
[3]
  T/C: 97 % of control

## OCC1OC(c2ccccc2)OC(CO)C(O)C1O (stereo not given)
[4]
  T/C: 96 % of control
[5]
  T/C: 98 % of control
[6]
  T/C: 94 % of control

## CC1(CO)CCCC2(C)C3=CC(=O)CCC3CCC12 (stereo not given)
[7]
  T/C: 95 % of control
[8]
  T/C: 101 % of control
[9]
  T/C: 97 % of control

## COc1cccc(/C(C)=N\NC(=O)c2ccccc2)c1
[10]
  T/C: 98 % of control
[4]
  T/C: 95 % of control
[5]
  T/C: 88 % of control
[11]
  T/C: 96 % of control

## CCCC(=O)Nc1ccn(C2OC(COC(=O)CCC)C(OC(=O)CCC)C2OC(=O)CCC)c(=O)n1 (stereo not given)
dose: 100.0 mg/kg/injection, schedule: Q01DX009 (ip), vehicle: Klucel (hydroxypropylcellulose) (HPC)
  T/C: 112 % of control
dose: 200.0 mg/kg/injection, schedule: Q01DX009 (ip), vehicle: Klucel (hydroxypropylcellulose) (HPC)
  T/C: 114 % of control

## O=[N+]1C=CC(=NN=c2ccn([O-])cc2)C=C1
[12]
  T/C: 100 % of control
[13]
  T/C: 96 % of control

## O=C(NC1c2ccccc2-c2ccccc21)C(F)(F)F
[5]
  T/C: 96 % of control
[11]
  T/C: 99 % of control
[6]
  T/C: 97 % of control
[14]
  T/C: 99 % of control
[15]
  T/C: 100 % of control
[16]
  T/C: 97 % of control

## CC12CCC(C(=O)C1)C1(C)CCCC(=O)C21 (stereo not given)
[17]
  T/C: 97 % of control

## c1ccc(-c2nnnn2-c2ccccc2)cc1
[1]
  T/C: 101 % of control
[2]
  T/C: 98 % of control
[3]
  T/C: 104 % of control

## O=C(O)CCCc1ccc(Cl)cc1
[1]
  T/C: 106 % of control
[2]
  T/C: 106 % of control
[3]
  T/C: 98 % of control

## CCc1ncc(CO)n1Cc1ccccc1
[5]
  T/C: 100 % of control

## O=c1[nH]cc(NCCCCc2ccccc2)c(=O)[nH]1
[7]
  T/C: 94 % of control
[8]
  T/C: 95 % of control
[9]
  T/C: 92 % of control

## O=c1c(O)c(-c2cc(O)c(O)c(O)c2)oc2cc(O)cc(O)c12
[10]
  T/C: 98 % of control
[4]
  T/C: 91 % of control
[5]
  T/C: 93 % of control
[6]
  T/C: 95 % of control

## CC(C)=CCCC(C)CCN(C)C (stereo not given)
dose: 25.0 mg/kg/injection, schedule: Q01DX009 (ip), vehicle: saline
  T/C: 94 % of control
dose: 50.0 mg/kg/injection, schedule: Q01DX009 (ip), vehicle: saline
  T/C: 94 % of control
dose: 100.0 mg/kg/injection, schedule: Q01DX009 (ip), vehicle: saline
  T/C: 93 % of control
[1]
  T/C: 93 % of control

## [Cl][Pt+2][Cl].[NH-]C1CCCC2CCC[N-]C12 (stereo not given)
[12]
  T/C: 105 % of control
[13]
  T/C: 121 % of control
[18]
  T/C: 110 % of control

## C=CC1=CC(=O)OC1=O
dose: 1.25 mg/kg/injection, schedule: Q01DX001 (ip), vehicle: saline
  T/C: 91 % of control
dose: 2.5 mg/kg/injection, schedule: Q01DX001 (ip), vehicle: saline
  T/C: 88 % of control
dose: 5.0 mg/kg/injection, schedule: Q01DX001 (ip), vehicle: saline
  T/C: 89 % of control
dose: 10.0 mg/kg/injection, schedule: Q01DX001 (ip), vehicle: saline
  T/C: 89 % of control

## CCOC(=O)C1CC2(CC(C)C1=O)OCCO2 (stereo not given)
dose: 100.0 mg/kg/injection, schedule: Q04DX003 (ip), vehicle: alcohol
  T/C: 97 % of control
dose: 200.0 mg/kg/injection, schedule: Q04DX003 (ip), vehicle: alcohol
  T/C: 97 % of control
dose: 400.0 mg/kg/injection, schedule: Q04DX003 (ip), vehicle: alcohol
  T/C: 92 % of control

## CCc1ccccc1NC(=O)c1cccc(Cl)c1
[5]
  T/C: 98 % of control
[11]
  T/C: 94 % of control
[6]
  T/C: 91 % of control
[14]
  T/C: 96 % of control
[15]
  T/C: 96 % of control
[16]
  T/C: 96 % of control

## CCCC(=O)Nc1ncnc2c1[nH]c(=O)n2C1OC2COP(=O)(O)OC2C1OC(=O)CCC (stereo not given)
dose: 6.25 mg/kg/injection, schedule: Q01DX005 (ip), vehicle: water
  T/C: 97 % of control
dose: 12.5 mg/kg/injection, schedule: Q01DX005 (ip), vehicle: water
  T/C: 93 % of control
dose: 25.0 mg/kg/injection, schedule: Q01DX005 (ip), vehicle: water
  T/C: 97 % of control
dose: 50.0 mg/kg/injection, schedule: Q01DX005 (ip), vehicle: water
  T/C: 97 % of control
dose: 100.0 mg/kg/injection, schedule: Q01DX005 (ip), vehicle: water
  T/C: 89 % of control

## Cn1c(=O)c2c(nc(Br)n2CC(=O)CF)n(C)c1=O
dose: 12.5 mg/kg/injection, schedule: Q01DX005 (ip), vehicle: distilled water + Tween-80
  T/C: 97 % of control and 100 % of control and 104 % of control
dose: 25.0 mg/kg/injection, schedule: Q01DX005 (ip), vehicle: distilled water + Tween-80
  T/C: 97 % of control (2×) and 105 % of control
dose: 50.0 mg/kg/injection, schedule: Q01DX005 (ip), vehicle: distilled water + Tween-80
  T/C: 94 % of control and 95 % of control
dose: 100.0 mg/kg/injection, schedule: Q01DX005 (ip), vehicle: distilled water + Tween-80
  T/C: 97 % of control (2×) and 112 % of control
dose: 200.0 mg/kg/injection, schedule: Q01DX005 (ip), vehicle: distilled water + Tween-80
  T/C: 93 % of control and 95 % of control

## NN=C1c2ccccc2-c2ccccc21
[11]
  T/C: 94 % of control
[14]
  T/C: 86 % of control
[16]
  T/C: 96 % of control

## O=P1(N(CCCl)CCCl)OC(c2ccccc2)=CCN1c1ccccc1 (stereo not given)
dose: 31.25 mg/kg/injection, schedule: Q01DX001 (ip), vehicle: saline
  T/C: 103 % of control
dose: 62.5 mg/kg/injection, schedule: Q01DX001 (ip), vehicle: saline
  T/C: 97 % of control
dose: 125.0 mg/kg/injection, schedule: Q01DX001 (ip), vehicle: saline
  T/C: 100 % of control
dose: 250.0 mg/kg/injection, schedule: Q01DX001 (ip), vehicle: saline
  T/C: 100 % of control
dose: 500.0 mg/kg/injection, schedule: Q01DX001 (ip), vehicle: saline
  T/C: 103 % of control

## CCOC(=O)C(C#N)C(=N)C#N (stereo not given)
[12]
  T/C: 93 % of control
[13]
  T/C: 89 % of control
[18]
  T/C: 110 % of control

## COC(=O)c1ccc(O)c([N+](=O)[O-])c1
[11]
  T/C: 104 % of control
[14]
  T/C: 93 % of control

## COc1ccc2cc(CC(=O)c3ccccc3)ccc2c1
[5]
  T/C: 100 % of control
[6]
  T/C: 96 % of control
[15]
  T/C: 90 % of control

## Cc1ncc(C=O)c(C)c1O
[17]
  T/C: 101 % of control

## Cc1c2ccccc2c(CN2CC(O)CC2C(=O)O)c2ccccc12 (stereo not given)
[11]
  T/C: 94 % of control
[14]
  T/C: 93 % of control
[16]
  T/C: 87 % of control

Source: PubChem BioAssay AID256 (DTP/NCI, 2004)
